Values of other authors as cited in US12171220B2, “High osmolarity antimicrobial composition containing one or more organic solvents” (Next Science IP Holdings Pty Ltd, priority 2013, dated 2024).

Details: alcohols, Table 2; room temperature

SMILES | ~δp (MPa^1/2)
OCC(Cl)CCl (centres unmarked) [2,3-dichloropropanol] | ~9.2
OC1C=CCC1 (centres unmarked) [2-cyclopentenyl alcohol] | ~7.6
CCC(CC)CO [2-ethyl-1-butanol] | ~4.3
CCCCC(CC)CO (centres unmarked) [2-ethyl-hexanol] | ~3.3
OCc1ccc(Cl)cc1 [4-chlorobenzyl alcohol] | ~7.5
CCCCO [Example 1-butanol, 1-butanol] | ~5.7
CCCCCCCCCCO [Example 1-decanol, 1-decanol] | ~10.0
CCCCCO [Example 1-pentanol, 1-pentanol] | ~4.5
CCCO [Example 1-propanol, 1-propanol] | ~6.8
CCCCCCCCC(C)O (centres unmarked) [Example 2-decanol, 2-decanol] | ~10.0
CCCC(C)O (centres unmarked) [Example 2-pentanol, 2-pentanol] | ~6.4
CC(C)O [Example 2-propanol, 2-propanol] | ~6.1
C=CCO [Example 2-propenol, 2-propenol] | ~10.8
OC1CCCCC1 [cyclohexanol] | ~4.1
CO [methanol] | ~12.3
CC(C)(C)O [t-butyl alcohol] | ~5.1

Other lines, results leading:

~δp (MPa^1/2) | SMILES
~8.8 | CCO [ethanol]
~7.3 | CC(C)CCCCCO [isooctyl alcohol]
~3.3 | CCCCCCCCO [octanol]
~2.6 | CCCCCCCC/C=C\CCCCCCCCO [oleyl alcohol]

Same assay, conditions: glycol ethers, Table 1; room temperature

SMILES | ~δp (MPa^1/2)
COCCOCCO [diethylene glycol monomethyl ether] | ~7.8
CCOCCO [ethylene glycol monoethyl ether] | ~9.2
COCCO [ethylene glycol monomethyl ether] | ~9.2
OCCOc1ccccc1 [ethylene glycol monophenyl ether] | ~5.7

Results, then the compound that gave them:

~δp (MPa^1/2) | SMILES
~7.0 | CCCCOCCOCCO [diethylene glycol mono-n-butyl ether]
~9.2 | CCOCCOCCO [diethylene glycol monoethyl ether]
~5.9 | OCCOCc1ccccc1 [ethylene glycol monobenzyl ether]
~5.1 | CCCCOCCO [ethylene glycol monobutyl ether]
~8.2 | CC(C)OCCO [ethylene glycol monoisopropyl ether]
~8.2 | CCCOCCO [ethylene glycol monopropyl ether]
~4.5 | CCCCOCC(C)O (centres unmarked) [propylene glycol monobutyl ether]
~6.5 | CCOCC(C)O (centres unmarked) [propylene glycol monoethyl ether]
~4.7 | CC(C)COCC(C)O (centres unmarked) [propylene glycol monoisobutyl ether]
~6.1 | CC(O)COC(C)C (centres unmarked) [propylene glycol monoisopropyl ether]
~6.3 | COCC(C)O (centres unmarked) [propylene glycol monomethyl ether]
~5.6 | CCCOCC(C)O (centres unmarked) [propylene glycol monopropyl ether]
~7.6 | COCCOCCOCCO [triethylene glycol monomethyl ether]
~3.1 | CCCCCCCC/C=C\CCCCCCCCOCCOCCOCCO [triethylene glycol monooleyl ether]

Same assay, conditions: solvents added in Examples 65-80, text

SMILES | δp
Clc1ccccc1 [chlorobenzene] | 4.3
CCOC(C)=O [ethyl acetate] | 5.3

Same assay, conditions: water

SMILES | δp
O [water] | ≈ 16.0 MPa^1/2
